Assay results taken from patent publication US12459974B2, “Bicyclic peptide ligands specific for Nectin-4” (priority 2018, dated 2025).
*1 amine or outer side, *2 acyl side, *3 side chain or, on linkers, in order; H or OH if unused. Where a SMILES comes first, the peptide text is derived from it. Bridges are numbered along the chain shown (N, C = ends). Roman numbers before positions name the chains, in order. [ ]: non-standard residue; d: D form. The star is where a group is joined. ξ: configuration not given here. TATA = O=C(CC[*:1])N1CN(C(=O)CC[*:2])CN(C(=O)CC[*:3])C1; Dolaproine = CO[C@@H]([C@@H]1CCCN1)[C@@H](C)C(=O)O; X1 = CC[C@H](C)C(C(CC(=O)[*:2])OC)N(C)[*:1]; 1Nal = N[C@@H](Cc1cccc2ccccc12)C(=O)O; X3 = O=C(CCCC(=O)[*:2])NCCC(=O)[*:1]; PABC = O=C(OCc1ccc(N[*:1])cc1)[*:2]; Hyp = O=C(O)[C@@H]1C[C@@H](O)CN1; hArg = N=C(N)NCCCC[C@H](N)C(=O)O; Cit = NC(=O)NCCC[C@H](N)C(=O)O; X2 = CC(N*)[C@@H](O)c1ccccc1; ξNMeV = CNC(C(=O)O)C(C)C; ξV = CC(C)C(N)C(=O)O; Sar = CNCC(=O)O

Columns and labels:
MDA-MB-468 xenograft = assay: Example 4: in vivo efficacy in MDA-MB-468 xenograft (breast cancer model) in Balb/c nude mice; set-up: species or system Mus Musculus
NCI-H292 xenograft = assay: Example 9.5: in vivo efficacy in NCI-H292 xenograft in Balb/c nude mice; set-up: species or system Mus Musculus

Compound: CC[C@H](C)C(C(CC(=O)N1CCC[C@H]1[C@H](OC)[C@@H](C)C(=O)NC(C)[C@@H](O)c1ccccc1)OC)N(C)C(=O)[C@@H](NC(=O)C(C(C)C)N(C)C(=O)OCc1ccc(NC(=O)[C@H](CCCNC(N)=O)NC(=O)C(NC(=O)CCCC(=O)NCCC(=O)N(C)CC(=O)N(C)CC(=O)N(C)CC(=O)N(C)CC(=O)N(C)CC(=O)N(C)CC(=O)N(C)CC(=O)N(C)CC(=O)N(C)CC(=O)N(C)CC(=O)N[C@H]2CSCCC(=O)N3CN4CN(C3)C(=O)CCSC[C@H](NC(=O)[C@@H](CC(=O)O)NC(=O)[C@H](Cc3cccc5ccccc35)NC(=O)[C@@H]3CCCN3C2=O)C(=O)N[C@@H](CCSC)C(=O)N[C@@H](CCCCNC(=N)N)C(=O)N[C@@H](CC(=O)O)C(=O)N[C@@H](Cc2c[nH]c3ccccc23)C(=O)N[C@@H](CO)C(=O)N[C@@H]([C@@H](C)O)C(=O)N2CCC[C@H]2C(=O)N2C[C@H](O)C[C@H]2C(=O)N[C@@H](Cc2c[nH]c3ccccc23)C(=O)N[C@H](C(N)=O)CSCCC4=O)C(C)C)cc1)C(C)C (stereo partly drawn) [BCY8245, MMAE-PABC-Cit-Val-Glutaryl-BCY8234] (I: [Sar][Sar][Sar][Sar][Sar][Sar][Sar][Sar][Sar][Sar]CP[1Nal][dD]CM[hArg]DWSTP[Hyp]WC-NH2 / II: [ξV][Cit][PABC][ξNMeV]V[X1][Dolaproine]-X2; linker I:11-I:15-I:25 via TATA; linker I:N-II:N via X3)
- TGI (MDA-MB-468 xenograft; 3 mg/kg biw, day 21): 169.8%
- Tumor volume (TV) (MDA-MB-468 xenograft; 3 mg/kg biw, day 21): 22 mm^3
- TGI (MDA-MB-468 xenograft; 3 mg/kg qw, day 21): 144.2%
- Tumor volume (TV) (MDA-MB-468 xenograft; 3 mg/kg qw, day 21): 85 mm^3
- TGI (MDA-MB-468 xenograft; 5 mg/kg qw, day 21): 168.4%
- Tumor volume (TV) (MDA-MB-468 xenograft; 5 mg/kg qw, day 21): 29 mm^3
- Tumor volume (MDA-MB-468 xenograft; 3 mpk, biw, iv, day 0 after start of treatment): 195 ± 33 mm^3
- Tumor volume (MDA-MB-468 xenograft; 3 mpk, biw, iv, day 2): 193 ± 27 mm^3
- Tumor volume (MDA-MB-468 xenograft; 3 mpk, biw, iv, day 4): 154 ± 20 mm^3
- Tumor volume (MDA-MB-468 xenograft; 3 mpk, biw, iv, day 7): 103 ± 20 mm^3
- Tumor volume (MDA-MB-468 xenograft; 3 mpk, biw, iv, day 9): 83 ± 16 mm^3
- Tumor volume (MDA-MB-468 xenograft; 3 mpk, biw, iv, day 11): 67 ± 14 mm^3
- Tumor volume (MDA-MB-468 xenograft; 3 mpk, biw, iv, day 14): 49 ± 11 mm^3
- Tumor volume (MDA-MB-468 xenograft; 3 mpk, biw, iv, day 16): 45 ± 14 mm^3
- Tumor volume (MDA-MB-468 xenograft; 3 mpk, biw, iv, day 18): 32 ± 12 mm^3
- Tumor volume (MDA-MB-468 xenograft; 3 mpk, biw, iv, day 21): 22 ± 4 mm^3
- T/C (MDA-MB-468 xenograft; 3 mpk, biw, day 21): 4.9%
- TGI (MDA-MB-468 xenograft; 3 mpk, biw, day 21): 169.8%
- Tumor volume (MDA-MB-468 xenograft; 3 mpk, biw, day 21, Mean ± SEM (Table 22)): 22 ± 4 mm^3
- Tumor volume (MDA-MB-468 xenograft; 3 mpk, qw, iv, day 0 after start of treatment): 194 ± 12 mm^3
- Tumor volume (MDA-MB-468 xenograft; 3 mpk, qw, iv, day 2): 192 ± 26 mm^3
- Tumor volume (MDA-MB-468 xenograft; 3 mpk, qw, iv, day 4): 184 ± 20 mm^3
- Tumor volume (MDA-MB-468 xenograft; 3 mpk, qw, iv, day 7): 131 ± 20 mm^3
- Tumor volume (MDA-MB-468 xenograft; 3 mpk, qw, iv, day 9): 113 ± 17 mm^3
- Tumor volume (MDA-MB-468 xenograft; 3 mpk, qw, iv, day 11): 104 ± 13 mm^3
- Tumor volume (MDA-MB-468 xenograft; 3 mpk, qw, iv, day 14): 94 ± 25 mm^3
- Tumor volume (MDA-MB-468 xenograft; 3 mpk, qw, iv, day 16): 81 ± 23 mm^3
- Tumor volume (MDA-MB-468 xenograft; 3 mpk, qw, iv, day 18): 87 ± 23 mm^3
- Tumor volume (MDA-MB-468 xenograft; 3 mpk, qw, iv, day 21): 85 ± 31 mm^3
- T/C (MDA-MB-468 xenograft; 3 mpk, qw, day 21): 18.9%
- TGI (MDA-MB-468 xenograft; 3 mpk, qw, day 21): 144.2%
- Tumor volume (MDA-MB-468 xenograft; 3 mpk, qw, day 21, Mean ± SEM (Table 22)): 85 ± 31 mm^3
- Tumor volume (MDA-MB-468 xenograft; 5 mpk, qw, dosing suspended from day 21, day 23): 35 ± 5 mm^3
- Tumor volume (MDA-MB-468 xenograft; 5 mpk, qw, dosing suspended from day 21, day 25): 48 ± 5 mm^3
- Tumor volume (MDA-MB-468 xenograft; 5 mpk, qw, dosing suspended from day 21, day 28): 37 ± 7 mm^3
- Tumor volume (MDA-MB-468 xenograft; 5 mpk, qw, dosing suspended from day 21, day 32): 28 ± 6 mm^3
- Tumor volume (MDA-MB-468 xenograft; 5 mpk, qw, dosing suspended from day 21, day 35): 24 ± 4 mm^3
- Tumor volume (MDA-MB-468 xenograft; 5 mpk, qw, dosing suspended from day 21, day 39): 28 ± 6 mm^3
- Tumor volume (MDA-MB-468 xenograft; 5 mpk, qw, dosing suspended from day 21, day 42): 26 ± 6 mm^3
- Tumor volume (MDA-MB-468 xenograft; 5 mpk, qw, iv, day 0 after start of treatment): 199 ± 28 mm^3
- Tumor volume (MDA-MB-468 xenograft; 5 mpk, qw, iv, day 2): 193 ± 11 mm^3
- Tumor volume (MDA-MB-468 xenograft; 5 mpk, qw, iv, day 4): 135 ± 4 mm^3
- Tumor volume (MDA-MB-468 xenograft; 5 mpk, qw, iv, day 7): 98 ± 5 mm^3
- Tumor volume (MDA-MB-468 xenograft; 5 mpk, qw, iv, day 9): 58 ± 5 mm^3
- Tumor volume (MDA-MB-468 xenograft; 5 mpk, qw, iv, day 11): 49 ± 5 mm^3
- Tumor volume (MDA-MB-468 xenograft; 5 mpk, qw, iv, day 14): 47 ± 2 mm^3
- Tumor volume (MDA-MB-468 xenograft; 5 mpk, qw, iv, day 16): 37 ± 4 mm^3
- Tumor volume (MDA-MB-468 xenograft; 5 mpk, qw, iv, day 18): 35 ± 3 mm^3
- Tumor volume (MDA-MB-468 xenograft; 5 mpk, qw, iv, day 21): 29 ± 3 mm^3
- T/C (MDA-MB-468 xenograft; 5 mpk, qw, day 21): 6.6%
- TGI (MDA-MB-468 xenograft; 5 mpk, qw, day 21): 168.4%
- Tumor volume (MDA-MB-468 xenograft; 5 mpk, qw, day 21, Mean ± SEM (Table 22)): 29 ± 3 mm^3
- anti-tumour activity (in words) (MDA-MB-468 xenograft; mouse, in vivo): good anti-tumour activity
- TGI (NCI-H292 xenograft; 3 mg/kg biw, day 14): 112.2%
- Tumor volume (TV) (NCI-H292 xenograft; 3 mg/kg biw, day 14): 65 mm^3
- TGI (NCI-H292 xenograft; 3 mg/kg qw, day 14): 101.4%
- Tumor volume (TV) (NCI-H292 xenograft; 3 mg/kg qw, day 14): 149 mm^3
- TGI (NCI-H292 xenograft; 5 mg/kg qw, day 14): 109.8%
- Tumor volume (TV) (NCI-H292 xenograft; 5 mg/kg qw, day 14): 83 mm^3
- Tumor volume (NCI-H292 xenograft; 3 mpk, biw, day 0 after the start of treatment): 162 mm^3
- Tumor volume (NCI-H292 xenograft; 3 mpk, biw, day 2): 243 mm^3
- Tumor volume (NCI-H292 xenograft; 3 mpk, biw, day 4): 211 mm^3
- Tumor volume (NCI-H292 xenograft; 3 mpk, biw, day 7): 101 mm^3
- Tumor volume (NCI-H292 xenograft; 3 mpk, biw, day 9): 100 mm^3
- Tumor volume (NCI-H292 xenograft; 3 mpk, biw, day 11): 87 mm^3
- T/C (NCI-H292 xenograft; 3 mpk, biw, day 14): 6.9%
- TGI (NCI-H292 xenograft; 3 mpk, biw, day 14): 112.2%
- Tumor Volume (Mean ± SEM) (NCI-H292 xenograft; 3 mpk, biw, day 14): 65 ± 3 mm^3
- Tumor volume (NCI-H292 xenograft; 3 mpk, biw, day 14): 65 mm^3
- Tumor volume (NCI-H292 xenograft; 3 mpk, qw, day 0 after the start of treatment): 160 mm^3
- Tumor volume (NCI-H292 xenograft; 3 mpk, qw, day 2): 220 mm^3
- Tumor volume (NCI-H292 xenograft; 3 mpk, qw, day 4): 266 mm^3
- Tumor volume (NCI-H292 xenograft; 3 mpk, qw, day 7): 218 mm^3
- Tumor volume (NCI-H292 xenograft; 3 mpk, qw, day 9): 167 mm^3
- Tumor volume (NCI-H292 xenograft; 3 mpk, qw, day 11): 161 mm^3
- T/C (NCI-H292 xenograft; 3 mpk, qw, day 14): 15.8%
